Reference: BindingDB's records for doi:10.1038/sj.bjp.0701367 (Kyoto University, 1997)

Assays:
[1] = biological target: Prostaglandin E2 receptor EP2 subtype (Mus musculus, UniProt Q62053)
[2] = biological target: T1, Prostaglandin E2 receptor EP3 subtype (Mus musculus, UniProt P30557)
T1 sequence (P30557 whole entry): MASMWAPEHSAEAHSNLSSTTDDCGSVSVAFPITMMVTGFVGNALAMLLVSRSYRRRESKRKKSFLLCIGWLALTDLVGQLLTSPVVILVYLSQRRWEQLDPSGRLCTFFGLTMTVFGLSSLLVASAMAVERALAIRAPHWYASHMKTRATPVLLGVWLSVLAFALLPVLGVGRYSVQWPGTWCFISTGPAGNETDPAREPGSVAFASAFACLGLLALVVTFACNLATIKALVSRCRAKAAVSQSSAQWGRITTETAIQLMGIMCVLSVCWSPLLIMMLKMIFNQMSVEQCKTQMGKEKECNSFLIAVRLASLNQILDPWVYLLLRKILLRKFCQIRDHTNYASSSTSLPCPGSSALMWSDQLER

[3] = biological target: Prostaglandin F2-alpha receptor (Mus musculus, UniProt P43117)
[4] = biological target: T2, Thromboxane A2 receptor (Mus musculus, UniProt P30987)
T2 sequence (P30987 whole entry): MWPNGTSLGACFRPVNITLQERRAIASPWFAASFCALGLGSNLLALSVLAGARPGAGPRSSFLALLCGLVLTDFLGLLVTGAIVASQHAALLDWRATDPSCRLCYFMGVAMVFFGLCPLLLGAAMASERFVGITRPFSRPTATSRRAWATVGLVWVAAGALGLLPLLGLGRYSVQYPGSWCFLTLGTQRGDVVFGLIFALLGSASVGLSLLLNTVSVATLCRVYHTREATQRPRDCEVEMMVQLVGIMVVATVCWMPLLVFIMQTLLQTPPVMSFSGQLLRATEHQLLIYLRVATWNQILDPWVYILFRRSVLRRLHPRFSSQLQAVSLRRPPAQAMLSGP

[5] = biological target: T3, Prostaglandin E2 receptor EP1 subtype (Mus musculus, UniProt P35375)
T3 sequence (P35375 whole entry): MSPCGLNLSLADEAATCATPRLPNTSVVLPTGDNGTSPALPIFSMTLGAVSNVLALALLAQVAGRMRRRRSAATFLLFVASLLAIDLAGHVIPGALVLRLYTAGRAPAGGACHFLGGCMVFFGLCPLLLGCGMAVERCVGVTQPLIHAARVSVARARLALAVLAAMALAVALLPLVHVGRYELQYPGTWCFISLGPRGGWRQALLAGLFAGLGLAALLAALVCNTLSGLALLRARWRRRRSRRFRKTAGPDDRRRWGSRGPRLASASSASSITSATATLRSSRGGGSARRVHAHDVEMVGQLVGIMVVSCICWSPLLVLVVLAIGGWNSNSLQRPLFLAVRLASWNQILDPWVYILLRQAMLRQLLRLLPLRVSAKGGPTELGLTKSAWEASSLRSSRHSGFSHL

[6] = biological target: Prostaglandin E2 receptor EP4 subtype (Mus musculus, UniProt P32240)
[7] = biological target: Prostacyclin receptor (Mus musculus, UniProt P43252)
Chain of Prostacyclin receptor (P43252 whole entry): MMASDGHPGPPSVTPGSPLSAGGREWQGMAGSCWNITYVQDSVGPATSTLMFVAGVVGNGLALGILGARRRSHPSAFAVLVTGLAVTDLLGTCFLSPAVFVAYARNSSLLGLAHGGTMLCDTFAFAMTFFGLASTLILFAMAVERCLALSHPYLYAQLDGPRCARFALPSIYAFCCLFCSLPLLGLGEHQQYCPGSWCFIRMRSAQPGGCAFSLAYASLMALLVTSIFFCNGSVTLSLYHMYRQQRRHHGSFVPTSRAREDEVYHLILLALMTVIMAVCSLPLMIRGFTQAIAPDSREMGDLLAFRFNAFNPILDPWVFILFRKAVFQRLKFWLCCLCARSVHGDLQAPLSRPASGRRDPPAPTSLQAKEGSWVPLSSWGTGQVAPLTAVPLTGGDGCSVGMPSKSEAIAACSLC

Chain of Prostaglandin E2 receptor EP2 subtype (Q62053 whole entry): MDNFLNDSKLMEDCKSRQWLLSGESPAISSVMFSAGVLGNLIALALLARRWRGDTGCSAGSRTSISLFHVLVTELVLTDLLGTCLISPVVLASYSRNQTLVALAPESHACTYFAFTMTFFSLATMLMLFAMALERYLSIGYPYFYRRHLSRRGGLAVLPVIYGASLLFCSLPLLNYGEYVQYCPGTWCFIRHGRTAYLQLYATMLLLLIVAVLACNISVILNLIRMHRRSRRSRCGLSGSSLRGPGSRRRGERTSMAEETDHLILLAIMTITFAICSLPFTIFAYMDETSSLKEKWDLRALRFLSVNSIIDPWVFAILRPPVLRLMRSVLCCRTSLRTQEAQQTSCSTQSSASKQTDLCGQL
Chain of Prostaglandin E2 receptor EP4 subtype (P32240 whole entry): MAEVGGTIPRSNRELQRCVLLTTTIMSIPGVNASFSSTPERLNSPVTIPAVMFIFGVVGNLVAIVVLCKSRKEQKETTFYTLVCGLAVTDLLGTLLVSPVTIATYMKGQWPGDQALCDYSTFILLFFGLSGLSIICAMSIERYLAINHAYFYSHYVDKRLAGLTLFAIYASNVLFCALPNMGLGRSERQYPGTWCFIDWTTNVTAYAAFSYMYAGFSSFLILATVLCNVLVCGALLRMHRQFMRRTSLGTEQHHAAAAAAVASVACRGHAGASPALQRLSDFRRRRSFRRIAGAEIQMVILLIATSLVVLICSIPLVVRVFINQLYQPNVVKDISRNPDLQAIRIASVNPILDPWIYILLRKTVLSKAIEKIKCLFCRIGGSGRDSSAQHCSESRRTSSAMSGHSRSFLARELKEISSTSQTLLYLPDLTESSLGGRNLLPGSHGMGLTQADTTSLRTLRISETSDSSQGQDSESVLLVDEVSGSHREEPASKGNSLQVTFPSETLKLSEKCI
Chain of Prostaglandin F2-alpha receptor (P43117 whole entry): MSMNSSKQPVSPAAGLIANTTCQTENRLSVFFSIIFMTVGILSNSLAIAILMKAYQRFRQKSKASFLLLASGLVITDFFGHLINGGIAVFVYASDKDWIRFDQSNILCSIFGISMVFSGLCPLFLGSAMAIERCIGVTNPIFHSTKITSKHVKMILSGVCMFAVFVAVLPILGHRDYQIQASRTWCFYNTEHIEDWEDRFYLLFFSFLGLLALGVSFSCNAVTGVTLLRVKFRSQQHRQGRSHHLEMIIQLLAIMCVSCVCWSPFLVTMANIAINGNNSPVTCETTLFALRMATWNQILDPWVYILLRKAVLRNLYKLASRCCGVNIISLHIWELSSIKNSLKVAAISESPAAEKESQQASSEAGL

| SMILES | Ki [1] [nM] | Ki [2] [nM] | Ki [3] [nM] | Ki [4] [nM] | Ki [5] [nM] | Ki [6] [nM] | Ki [7] [nM] |
| --- | --- | --- | --- | --- | --- | --- | --- |
| O=C(O)CCC/C=C\C[C@H]1[C@@H]2CCC(O2)[C@@H]1/C=C/[C@@H](O)COc1ccc(I)cc1 [I-BOP] | 220 | 100 | 100 | 0.56 | – | – | – |
| CCCCC[C@H](O)/C=C/C1[C@H](O)C[C@H](O)[C@@H]1C/C=C\CCCC(=O)O (stereo partly drawn) [(Z)-7-[(1R,3R,5S)-3,5-Dihydroxy-2-((E)-(S)-3-hydroxy-oct-1-enyl)-cyclopentyl]-hept-5-enoic acid] | – | 75 | – | – | 1300 | – | – |
| CCCCCC(O)CC=C1C(=O)C=CC1CC=CCCCC(=O)O (configuration not stated) [CAS_41598-07-6] | – | 280 | 47 | – | – | – | – |
| O=C(O)CCCC=CCC1C(O)CC(O)C1C=CC(O)COc1cccc(C(F)(F)F)c1 (configuration not stated) [CAS_40666-16-8] | – | – | 3.8 | – | – | – | – |
| CC#CCC(C)[C@H](O)/C=C/[C@@H]1[C@H]2C/C(=C/CCCC(=O)O)C[C@H]2C[C@H]1O (some centres not stated) | 1600 | 22 | – | – | 21 | 2300 | 11 |
| CCCCCC(O)c1ccc(C2CCC(=O)C2CCCCCCC(=O)O)cc1 (configuration not stated) [CAS_132836] | 240 | 82 | – | – | – | – | – |
| CCCCC(C)(C)C(O)C=CC1C(O)CC(=O)C1CC=CCCCC(=O)O (configuration not stated) | 17 | 1.9 | 350 | – | – | 43 | – |
| O=C(O)CC/C=C\CC[C@@H]1[C@@H](N2CCCCC2)[C@@H](O)C[C@@H]1OCc1ccc(-c2ccccc2)cc1 [GR 32191] | – | – | – | 12 | – | – | – |
| O=C(O)CCCCCCC1C(=O)CCC1C=CC(O)COc1ccccc1 (configuration not stated) [CAS_80558-61-8] | – | 0.68 | 124 | 1300 | 120 | 500 | – |
| CCCCC[C@@H](O)/C=C/[C@H]1[C@H](O)CC(=O)[C@@H]1CCCCCCC(=O)O | 10 | 1.1 | – | – | 36 | 2.1 | 33 |
| CCC#CCC(C)C(O)C#CC1C(O)CC2CC(=CCOCC(=O)O)CC21 (configuration not stated) [CAS_94079-80-8] | 1300 | 170 | – | – | – | – | 10 |
| CS(=O)(=O)NC(=O)CCCC=CCC1C(=O)CC(O)C1C=CC(O)COc1ccccc1 (configuration not stated) [CAS_60325-46-4] | – | 0.6 | 580 | – | 21 | – | – |
| CC(C)Oc1ccc2c(=O)c3cc(C(=O)O)ccc3oc2c1 [CAS_33458-93-4] | 350 | – | – | – | – | – | – |
| CCCCC[C@H](O)/C=C/[C@H]1[C@H](O)CC(=O)[C@@H]1C/C=C\CCCC(=O)O [DINOPROSTONE] | 12 | 0.85 | 100 | – | 20 | – | – |
| O=C(O)CCC/C=C\C[C@H]1C(=O)C[C@@H](O)[C@@H]1/C=C/[C@@H](O)CCc1ccccc1 [17-PHENYL TRINOR PROSTAGLANDIN E2] | – | 3.7 | 60 | – | 14 | 1000 | – |
| CCCCC[C@H](O)/C=C/[C@@H]1[C@H]2C/C(=C\CCCC(=O)O)C[C@H]2C[C@H]1O | 1600 | 31 | 1200 | – | – | 2300 | 110 |
| CCCC1([C@@H](O)C/C=C/C2[C@H](O)CC(=O)[C@@H]2CCCCCCC(=O)OC)CCC1 (some centres not stated) [Butaprost (Methyl Ester)] | 110 | – | – | – | – | – | – |

Continued, values first:

| Ki [1] [nM] | Ki [2] [nM] | Ki [3] [nM] | Ki [4] [nM] | Ki [5] [nM] | Ki [6] [nM] | Ki [7] [nM] | SMILES |
| --- | --- | --- | --- | --- | --- | --- | --- |
| – | 1.9 | – | – | – | 480 | – | O=C(CCC=CCCC1C(=O)CC(O)C1OCC(O)COc1ccccc1)Oc1ccc(NC(=O)c2ccccc2)cc1 (configuration not stated) [NSC_5311224] |
| – | – | – | 0.68 | – | – | – | O=C(O)CCC/C=C\C[C@@H]1C(NS(=O)(=O)c2ccccc2)C2CC[C@@H]1C2 (single isomer, unassigned; (+)) [S 145] |
| 220 | 23 | 97 | 14 | – | 350 | – | CCCCC[C@H](O)/C=C/C1C[C@H]2C[C@H](S2)[C@@H]1C/C=C\CCCC(=O)O (some centres not stated) [STA2] |
| – | – | 1700 | – | – | – | – | O=C(O)CCCCCCc1c(O)[nH]c(=O)n1CCC(O)C1CCCCC1 (configuration not stated) [NSC_3080928] |
| – | 110 | – | – | – | – | 16 | CC#CCC(C)C(O)C=CC1C(O)CC2Oc3c(CCCC(=O)O)cccc3C21 (configuration not stated) [NSC_2352] |
| 1000 | 31 | – | – | – | – | 15 | CCCCCC(O)C=CC1C(O)CC2C=C(CCCCC(=O)O)CC21 (configuration not stated) [NSC_5311244] |
| – | 740 | – | – | – | – | 47 | CC1=C(CCON=C(c2ccccc2)c2cccnc2)c2cccc(OCC(=O)O)c2CC1 [NSC_128021] |
| 45 | 1.5 | – | – | 600 | 23 | 1000 | CCCCCC(O)C=CC1CCC(=O)C1CCCCCCC(=O)O (configuration not stated) [PGE1,11-DEOXY] |
| – | – | 1000 | – | – | – | – | C[C@H](O)CCCC(O)C=CC1C(O)CC(=O)C1CC=CCCCC(=O)O (some centres not stated) [PGE2,19R(OH)] |
| 250 | 67 | – | – | 120 | 67 | – | CCCCC(C)(O)CC=CC1C(O)CC(=O)C1CCCCCCC(=O)OC (configuration not stated) [MISOPROSTOL (Methyl Ester)] |
| – | – | 1000 | 67 | – | – | – | CCCCC[C@H](O)/C=C/C1[C@@H](C/C=C\CCCC(=O)O)[C@H]2CO[C@@H]1C2 (some centres not stated) [U46619] |
| – | 330 | – | – | – | 190 | – | O=C(O)CCCCCCC1C(=O)CC(O)C1C=CC(O)CCCCCO (configuration not stated) [PGE1,1-OH] |
